Source: publication PMC7114316 (Antiviral Research, 2019)
Where two headings read alike, the source gives them in different places.

Key:
[1] = biological target: FIPV 3CL^pro (Feline coronavirus, UniProt Q98VG9); assay: FIPV 3CLpro protease inhibition assay; assay type: biochemical, feline infectious peritonitis virus (FIPV strain 79–1146); settings: for IC50: 35 nM enzyme, 6 μM fluorogenic substrate
[2] = test system: CRFK cells; assay: Cytotoxicity assay; assay type: cell-based, feline; settings: read-out: Cytotoxicity CC50, 48 h, MTS assay
[3] = test system: FIPV strain 79–1146; assay: Antiviral assay in FIPV-infected CRFK cells, summary over the test conditions; assay type: cell-based, feline infectious peritonitis virus; settings: for control of FIPV infection under all the tested conditions: result in words; for EC50: Alphacoronavirus 1, CRFK, read-out: EC50, range over antiviral test conditions
[4] = test system: FIPV strain 79–1146; assay: Antiviral assay, prophylactic activity; assay type: cell-based, feline infectious peritonitis virus; settings: for EC50: read-out: Prophylactic antiviral activity EC50, IPMA; for Prophylactic antiviral activity SI: SI = CC50/EC50; for concentration that completely protects the cells from virus infection: prophylactic or protective activity
[5] = test system: FIPV strain 79–1146; assay: Antiviral assay, pre-viral entry activity; assay type: cell-based, feline infectious peritonitis virus; settings: for EC50: read-out: Pre-viral entry EC50, IPMA, 24 h; for Pre-viral entry SI: SI = CC50/EC50
[6] = test system: FIPV strain 79–1146; assay: Antiviral assay, post-viral entry activity; assay type: cell-based, feline infectious peritonitis virus; settings: for EC50: read-out: Post-viral entry EC50, IPMA; for Post-viral entry SI: SI = CC50/EC50
[7] = Cytotoxicity assay; assay type: cell-based, feline; settings: cat, CRFK cells
[8] = test system: 3CL^pro of SARS-CoV; settings: read-out: IC50, 3CL^pro of SARS-CoV; cited from earlier work
[9] = biological target: HIV-1 integrase; settings: read-out: IC50, anti-HIV-1 integrase activities; ref Neamati et al., 1997; cited from earlier work
[10] = read-out: Protease inhibition assay (IC50)
[11] = compound incubation at 37 °C for 2 h before inoculation with FIPV at 100 TCID50/well, CRFK cells
[12] = 100 TCID50 FIPV incubation with compounds, CRFK cells
[13] = 100 TCID50 FIPV adsorption at 37 °C for 2 h before adding the tested compounds, CRFK cells
[14] = Protease inhibition assay (IC50)

Sequence of FIPV 3CL^pro (Q98VG9 2904-3205 limits assumed): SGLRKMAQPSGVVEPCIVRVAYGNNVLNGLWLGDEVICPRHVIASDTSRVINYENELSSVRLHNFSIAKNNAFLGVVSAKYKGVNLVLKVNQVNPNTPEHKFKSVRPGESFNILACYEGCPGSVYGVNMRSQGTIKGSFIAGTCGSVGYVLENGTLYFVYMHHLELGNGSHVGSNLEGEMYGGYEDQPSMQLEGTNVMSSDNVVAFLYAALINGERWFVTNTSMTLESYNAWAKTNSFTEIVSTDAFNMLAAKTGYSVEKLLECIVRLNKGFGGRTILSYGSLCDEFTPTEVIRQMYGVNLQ

C=C1C[C@@]23CC[C@H]4[C@@](C)(CCC[C@@]4(C)C(=O)O)[C@@H]2CC[C@]1(O)C3 [CID452967]
IC50 [1, 10]: > 500 µM

O=C1C(=O)N(Cc2ccc(Cc3ccc(CN4C(=O)C(=O)c5ccccc54)cc3)cc2)c2ccccc21 [CID3821945]
CC50 [2]: 306.8 ± 0.175 µM | control of FIPV infection under all the tested conditions [3]: could not control FIPV infection | EC50 [4, 11]: > 200 µM | IC50 [1, 10]: 10.3 ± 2.5 µM | EC50 [5, 12]: > 100 µM | EC50 [6, 13]: > 100 µM

COc1cc(O)c2c(=O)cc(-c3ccc(O)c(O)c3)oc2c1 [CID5318214]
CC50 [2]: 339.3 ± 0.03 µM | control of FIPV infection under all the tested conditions [3]: could not control FIPV infection | EC50 [4, 11]: > 200 µM | IC50 [1, 10]: 28.5 ± 4.2 µM | EC50 [5, 12]: > 100 µM | EC50 [6, 13]: > 100 µM

Cc1ccc(S(=O)(=O)N/N=C\C=C\c2ccccc2)cc1 [CID5372747]
CC50 [2]: 336.2 ± 0.13 µM | control of FIPV infection under all the tested conditions [3]: could not control FIPV infection | EC50 [4, 11]: > 200 µM | IC50 [1, 10]: 78.4 ± 2.6 µM | EC50 [5, 12]: > 100 µM | EC50 [6, 13]: > 200 µM

C[C@@H]1O[C@@H](Oc2cc(O)c3c(=O)c(O)c(-c4ccc(O)c(O)c4)oc3c2)[C@H](O)[C@H](O)[C@H]1O [CID5748601]
CC50 [2]: 425.3 ± 0.13 µM | control of FIPV infection under all the tested conditions [3]: could not control FIPV infection | EC50 [4, 11]: > 200 µM | IC50 [1, 10]: 77.2 ± 13.8 µM | EC50 [5, 12]: > 100 µM | EC50 [6, 13]: > 100 µM

O=c1cc(-c2ccc(O)c(O)c2)oc2cc(OCc3ccccc3)cc(O)c12 [CID71313853]
IC50 [1, 10]: > 500 µM

Cc1cccc(C)c1OCC(=O)N[C@@H](Cc1ccccc1)[C@@H](O)C[C@H](Cc1ccccc1)NC(=O)[C@H](C(C)C)N1CCCNC1=O [Lopinavir, reference compound]
CC50 at 48 h [7]: > 500 µM | EC50 [3]: 5.38 to 31.7 µM | EC50 ([4]; Alphacoronavirus 1, CRFK): 31.7 ± 1.37 µM | Prophylactic antiviral activity SI [4]: 16.61 | EC50 ([5]; Alphacoronavirus 1, CRFK): 8.56 ± 0.47 µM | Pre-viral entry SI [5]: 61.52 | IC50 [8]: ~50 µM | EC50 ([6]; Alphacoronavirus 1, CRFK): 5.38 ± 2.32 µM | Post-viral entry SI [6]: 97.83

CC[C@](C)(O)C(=O)O[C@H]1C(=O)O[C@@H]2C[C@H]3C(C)=C[C@H](O)[C@@H](O)[C@]3(C)[C@H]3[C@]4(O)OC[C@]32[C@@H]1[C@@H](C)[C@H]4O [NSC14975]
IC50 [1, 14]: > 500 µM

O=C1c2cc(O)c(O)cc2OC(c2ccc(O)c(O)c2)C1O (centres unmarked) [NSC36398]
IC50 [1, 10]: > 500 µM

C[C@]1(O)CC[C@H]2[C@@H]3CC[C@H]4C[C@@H](O)CC[C@]4(C)[C@@]3(F)[C@@H](O)C[C@@]21C [NSC38273]
IC50 [1, 10]: > 500 µM

COc1cc(C)c2c(c1C=O)Oc1c(c(C)c(O)c3c1C(O)OC3=O)OC2=O (centres unmarked) [NSC87511, Stictic acid]
CC50 at 48 h [7]: 371.9 ± 0.26 µM | EC50 ([4]; Alphacoronavirus 1, CRFK): 26.9 ± 1.25 µM | Prophylactic antiviral activity SI [4]: 13.80 | concentration that completely protects the cells from virus infection ([4]; CRFK cells): 20 to 50 µM | IC50 [9]: < 50 µM | Ki ([1]; Ki value, competitive inhibition, 35 nM FIPV 3CL^pro, substrate 3 to 40 μM): 17 ± 1.8 µM | IC50 [1, 14]: 29.4 ± 4.6 µM | EC50 ([5]; Alphacoronavirus 1, CRFK): 16.2 ± 1.33 µM | Pre-viral entry SI [5]: 22.90 | EC50 ([6]; Alphacoronavirus 1, CRFK): 21.8 ± 1.64 µM | Post-viral entry SI [6]: 17.04

CC[C@H]1CN2CCc3cc(OC)c(OC)cc3[C@@H]2C[C@@H]1C[C@H]1NCCc2c1[nH]c1ccc(O)cc21 [NSC131547]
IC50 [1, 10]: > 500 µM

C/C(=C\COc1ccc2ccc(=O)oc2c1)C1=CC(=O)C(C)(C)O1 [NSC142227]
IC50 [1, 10]: > 500 µM

CC(=O)O[C@@H]1[C@@H](O)C2=C3[C@]4(C)[C@@H]1C(C)(C)C(=O)C[C@@H]4[C@]3(O)[C@H](OC(C)=O)[C@@]1(C[C@@H]1C)C2=O [NSC270914]
IC50 [1, 10]: > 500 µM

CO[C@H]1C[C@@H]2\C=C(C)/C=C/C=C\C(=O)N[C@H](c3ccccc3)C/C=C/CC[C@H](O)CC(=O)C2=C1O [NSC343256, Hitachimycin]
CC50 [2]: 56.9 ± 0.73 µM | concentration that completely protects the cells from virus infection ([4]; CRFK cells): 20 to 50 µM | EC50 [4, 11]: 16.2 ± 1.23 µM | IC50 [1, 10]: 24.5 ± 8.9 µM | Pre-viral entry SI [5]: 2.89 | EC50 [5, 12]: 3.83 ± 0.44 µM | Post-viral entry SI [6]: 2.77 | EC50 [6, 13]: 4 ± 0.37 µM

CC1Oc2cc3c(-c4c(O)cc(O)c5c(O)c6c(cc45)OC(C)C(C)C6=O)c(O)cc(O)c3c(O)c2C(=O)C1C (centres unmarked) [NSC345647, Chaetochromin]
CC50 [2]: 10.5 ± 0.13 µM | Prophylactic antiviral activity SI [4]: 3.69 | concentration that completely protects the cells from virus infection ([4]; CRFK cells): 20 to 50 µM | EC50 [4, 11]: 2.85 ± 0.52 µM | IC50 [1, 10]: 6.3 ± 2.1 µM | Pre-viral entry SI [5]: 8.88 | EC50 [5, 12]: 1.19 ± 0.95 µM | Post-viral entry SI [6]: 2.20 | EC50 [6, 13]: 4.87 ± 0.12 µM

NC(=O)c1ncn([C@@H]2O[C@H](CO)[C@@H](O)[C@H]2O)n1 [Ribavirin, reference compound]
CC50 at 48 h [7]: > 500 µM | EC50 [3]: 48.9 to 74 µM | EC50 ([4]; Alphacoronavirus 1, CRFK): > 200 µM | antiviral effect in the prophylaxis study ([4]; result in words): did not show an antiviral effect | EC50 ([5]; Alphacoronavirus 1, CRFK): 48.9 ± 1.77 µM | Pre-viral entry SI [5]: 25.68 | EC50 ([6]; Alphacoronavirus 1, CRFK): 73.98 ± 0.18 µM | Post-viral entry SI [6]: 16.96
